Measurements as given in ChEMBL document CHEMBL3603805, “Novel metal chelating molecules with anticancer activity. Striking effect of the imidazole substitution of the histidine-pyridine-histidine system” (Bioorg Med Chem, 2015).
Calls of active or inactive are those of the source. No cut-off for these calls is given here.

How the values were obtained:
Escherichia coli = test: Induction of DNA cleavage in Escherichia coli supercoiled pUC19 DNA assessed as formation of nicked form II DNA using FeSO4 at 30 uM after 1.5 hrs by agarose-gel electrophoresis
ASPC1 = test: Cytotoxicity against human AsPC1 cells at 10 uM after 24 hrs by MTT assay; format: functional, cell-based
U-87MG ATCC = test: Cytotoxicity against human U87 cells at 10 uM after 24 hrs by MTT assay; format: functional, cell-based
U-251 = test: Cytotoxicity against human U251 cells at 10 uM after 24 hrs by MTT assay; format: functional, cell-based
[1] = Stability of the compound under physiological condition; format: physicochemical

Row | Activity (Escherichia coli) | Stability [1] | SMILES | Activity (ASPC1) | Activity (U-87MG ATCC) | Activity (U-251)
1 | Active | – | COC(=O)[C@H](Cc1cn(C)cn1)NCc1cc(N(C)C)cc(CN[C@@H](Cc2cn(C)cn2)C(=O)OC)n1 | inactive | inactive | inactive
2 | Active | – | COC(=O)[C@H](Cc1c[nH]cn1)NCc1cc(N(C)C)cc(CN[C@@H](Cc2c[nH]cn2)C(=O)OC)n1 | inactive | inactive | inactive

Continued, molecule first:

Row | SMILES | Activity (Escherichia coli) | Stability [1] | Activity (ASPC1) | Activity (U-87MG ATCC) | Activity (U-251)
3 | COC(=O)[C@H](Cc1cn(Cc2ccccc2)cn1)NCc1cc(N(C)C)cc(CN[C@@H](Cc2cn(Cc3ccccc3)cn2)C(=O)OC)n1 | Active | – | inactive | inactive | inactive
4 | COC(=O)[C@H](Cc1c[nH]cn1)NCc1cc(N(C)C)cc(CN[C@@H](Cc2cn(C)cn2)C(=O)OC)n1 | Active | – | inactive | inactive | inactive
5 | COC(=O)[C@H](Cc1cn(C(c2ccccc2)(c2ccccc2)c2ccccc2)cn1)NCc1cc(N(C)C)cc(CN[C@@H](Cc2cn(C(c3ccccc3)(c3ccccc3)c3ccccc3)cn2)C(=O)OC)n1 | Active | Stable | Active | Active | Active
6 | COC(=O)[C@H](Cc1c[nH]cn1)NCc1cc(N(C)C)cc(CN[C@@H](Cc2cn(C(c3ccccc3)(c3ccccc3)c3ccccc3)cn2)C(=O)OC)n1 | Active | Stable | Active | Active | Active
